Assay results from ChEMBL document CHEMBL5346961, “Discovery and Evaluation of 3-Quinoxalin Urea Derivatives as Potent, Selective, and Orally Available ATM Inhibitors Combined with Chemotherapy for the Treatment of Cancer via Goal-Oriented Molecule Generation and Virtual Screening” (J Med Chem, 2023).

Key:
[1] = biological target: T1, Serine-protein kinase ATM (Homo sapiens, UniProt Q13315); assay: Inhibition of ATM (unknown origin) assessed as remaining activity at 1 uM preincubated with compound for 30 mins followed by substrate addition and measured after 2 hrs by HTRF method relative to control; conditions: time 2.5 hrs
[2] = biological target: T1, Serine-protein kinase ATM; assay: Inhibition of ATM (unknown origin) assessed as remaining activity at 0.01 uM preincubated with compound for 30 mins followed by substrate addition and measured after 2 hrs by HTRF method relative to control; conditions: time 2.5 hrs
HCT-116 [3] = assay: Inhibition of colony formation in human HCT-116 cells at 0.01 uM preincubated for 1 hr followed by exposure to 2 Gy gamma irradiation and measured after 1 week by crystal violet staining based […] assay relative to control; type: functional; conditions: HCT-116, light or radiation study, time 169 hrs
[4] = biological target: Serine/threonine-protein kinase ATR (Homo sapiens, UniProt Q13535); assay: Inhibition of ATR (unknown origin) assessed as remaining activity at 1 uM in presence of [gamma33P-ATP] by radiometric assay
Serine/threonine-protein kinase ATR, sequence (Q13535 whole entry, looked up): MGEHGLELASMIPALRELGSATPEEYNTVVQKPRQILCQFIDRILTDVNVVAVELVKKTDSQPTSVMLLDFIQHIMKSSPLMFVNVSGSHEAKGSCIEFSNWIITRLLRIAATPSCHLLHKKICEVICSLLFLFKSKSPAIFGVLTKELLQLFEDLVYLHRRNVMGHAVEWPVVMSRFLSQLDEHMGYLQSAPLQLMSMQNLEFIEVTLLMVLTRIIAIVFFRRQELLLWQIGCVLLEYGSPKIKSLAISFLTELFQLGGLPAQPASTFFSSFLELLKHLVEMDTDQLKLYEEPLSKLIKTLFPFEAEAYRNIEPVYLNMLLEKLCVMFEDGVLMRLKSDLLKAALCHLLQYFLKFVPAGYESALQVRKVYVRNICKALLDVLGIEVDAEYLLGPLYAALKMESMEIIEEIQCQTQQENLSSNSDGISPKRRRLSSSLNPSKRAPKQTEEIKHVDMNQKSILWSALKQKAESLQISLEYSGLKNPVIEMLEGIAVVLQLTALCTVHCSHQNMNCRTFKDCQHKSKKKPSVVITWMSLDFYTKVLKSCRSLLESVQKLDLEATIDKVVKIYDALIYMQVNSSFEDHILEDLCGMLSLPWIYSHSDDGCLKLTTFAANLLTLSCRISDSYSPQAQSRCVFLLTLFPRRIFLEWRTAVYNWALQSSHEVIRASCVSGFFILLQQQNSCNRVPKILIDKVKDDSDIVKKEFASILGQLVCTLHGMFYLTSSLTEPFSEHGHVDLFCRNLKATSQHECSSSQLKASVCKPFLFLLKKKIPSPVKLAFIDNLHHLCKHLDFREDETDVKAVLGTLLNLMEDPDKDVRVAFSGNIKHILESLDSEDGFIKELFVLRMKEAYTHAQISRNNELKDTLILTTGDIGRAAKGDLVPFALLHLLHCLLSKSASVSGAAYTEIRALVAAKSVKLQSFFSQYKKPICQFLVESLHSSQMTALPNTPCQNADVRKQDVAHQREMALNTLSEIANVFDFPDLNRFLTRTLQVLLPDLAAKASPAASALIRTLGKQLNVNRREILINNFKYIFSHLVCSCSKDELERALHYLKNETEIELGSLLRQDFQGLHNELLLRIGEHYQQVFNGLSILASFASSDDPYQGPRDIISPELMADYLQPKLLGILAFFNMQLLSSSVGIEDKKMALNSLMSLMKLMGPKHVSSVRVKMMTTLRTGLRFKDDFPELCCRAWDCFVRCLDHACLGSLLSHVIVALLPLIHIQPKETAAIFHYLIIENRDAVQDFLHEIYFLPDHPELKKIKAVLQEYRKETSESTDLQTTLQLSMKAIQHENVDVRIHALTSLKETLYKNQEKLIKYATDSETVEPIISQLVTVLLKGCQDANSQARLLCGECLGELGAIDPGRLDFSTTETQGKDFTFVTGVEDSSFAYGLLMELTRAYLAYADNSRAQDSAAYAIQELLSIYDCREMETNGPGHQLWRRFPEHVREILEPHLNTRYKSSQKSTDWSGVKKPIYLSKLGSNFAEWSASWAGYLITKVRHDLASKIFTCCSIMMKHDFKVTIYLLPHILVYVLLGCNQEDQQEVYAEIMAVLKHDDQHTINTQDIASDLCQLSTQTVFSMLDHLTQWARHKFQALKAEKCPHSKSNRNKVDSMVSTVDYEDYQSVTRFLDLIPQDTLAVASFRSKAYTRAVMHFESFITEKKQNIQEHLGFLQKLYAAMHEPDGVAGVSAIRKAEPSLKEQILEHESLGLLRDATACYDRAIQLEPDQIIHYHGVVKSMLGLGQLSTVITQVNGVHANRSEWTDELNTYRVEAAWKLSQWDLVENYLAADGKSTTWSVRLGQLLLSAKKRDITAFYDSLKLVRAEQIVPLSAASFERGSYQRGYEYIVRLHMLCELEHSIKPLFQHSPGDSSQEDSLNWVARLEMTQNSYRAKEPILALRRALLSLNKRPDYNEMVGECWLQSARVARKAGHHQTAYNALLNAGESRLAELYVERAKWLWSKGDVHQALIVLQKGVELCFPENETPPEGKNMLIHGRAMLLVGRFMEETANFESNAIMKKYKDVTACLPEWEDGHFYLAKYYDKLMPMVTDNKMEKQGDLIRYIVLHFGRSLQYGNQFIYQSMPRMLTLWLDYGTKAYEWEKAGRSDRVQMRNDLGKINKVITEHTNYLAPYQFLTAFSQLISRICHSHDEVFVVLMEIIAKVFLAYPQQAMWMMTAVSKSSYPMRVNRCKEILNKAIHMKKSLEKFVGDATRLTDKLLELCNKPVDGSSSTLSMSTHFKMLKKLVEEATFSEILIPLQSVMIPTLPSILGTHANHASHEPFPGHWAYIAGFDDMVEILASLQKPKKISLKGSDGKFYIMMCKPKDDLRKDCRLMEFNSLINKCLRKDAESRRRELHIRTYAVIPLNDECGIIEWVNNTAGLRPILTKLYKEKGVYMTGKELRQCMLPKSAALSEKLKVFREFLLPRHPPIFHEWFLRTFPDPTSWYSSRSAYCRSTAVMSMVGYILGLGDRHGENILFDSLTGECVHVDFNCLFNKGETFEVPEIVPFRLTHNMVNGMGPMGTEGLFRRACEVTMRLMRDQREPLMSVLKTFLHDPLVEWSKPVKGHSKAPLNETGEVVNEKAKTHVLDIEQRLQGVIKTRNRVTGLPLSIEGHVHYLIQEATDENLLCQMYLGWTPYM

[5] = Metabolic stability in human liver microsomes assessed as clearance at 1 uM in presence of NADPH-regenerating system by LC-MS/MS analysis; type: ADME, Microsome
[6] = Metabolic stability in human liver microsomes assessed as half life at 1 uM in presence of NADPH-regenerating system by LC-MS/MS analysis; type: ADME, Microsome
[7] = biological target: T1, Serine-protein kinase ATM; assay: Inhibition of ATM (unknown origin) preincubated with compound for 30 mins followed by substrate addition and measured after 2 hrs by HTRF method
HCT-116 [8] = assay: Inhibition of colony formation in human HCT-116 cells preincubated for 1 hr followed by exposure to 2 Gy gamma irradiation and measured after 1 week by crystal violet staining based […] assay; type: functional, cell-based; conditions: HCT-116, light or radiation study
HCT-116 [9] = assay: Antiproliferative activity against human HCT-116 cells assessed as cell survival at 1 uM incubated for 6 days by MTT assay relative to control; type: functional; conditions: HCT-116, 144 h, time 6 day, read-out: Survival

Row | Compound | Activity [1] [%] | Activity [2] [%] | inhibition at 0.01 µM (HCT-116 [3]) [%] | Activity [4] [%] | CLH [5] [mL/min/g] | half-life at 1 µM [6] [min] | IC50 [7] [nM] | IC50 (HCT-116 [8]) [nM] | viability at 1 µM (HCT-116 [9]) [%]
1 | CC(C)NC(=O)N(C)c1cnc2ccc(-c3ccc(OCCN4CCCC4)nc3)cc2n1 | 1 | 76 | 25 | – | – | – | – | – | –
2 | CC(C)NC(=O)N(C)c1cnc2ccc(-c3ccc(OCCN4CCN(C)CC4)nc3)cc2n1 | 22 | 97 | 22.8 | – | – | – | – | – | –
3 | CC(C)NC(=O)Nc1cnc2ccc(-c3ccc(OCCCN(C)C)nc3)cc2n1 | -4 | – | – | 98 | 94 | 15 | – | – | –
4 | CC(C)NC(=O)N(C)c1cnc2ccc(-c3ccc(OCCCN4CCCC4=O)nc3)cc2n1 | 71 | 106 | 33.7 | – | 19 | 90 | – | – | –
5 | CCCNC(=O)N(C)c1cnc2ccc(-c3ccc(OCCCN(C)C)nc3)cc2n1 | – | 12 | 77.4 | 102 | 84 | 16 | 3 | – | –
6 | CN(C)CCCOc1ccc(-c2ccc3ncc4c(c3c2)n(C2CCOCC2)c(=O)n4C)cn1 | – | – | 94.3 | – | – | – | – | 0.46 | –
7 | CC(C)NC(=O)N(C)c1cnc2ccc(-c3ccc(OCCCCN(C)C)nc3)cc2n1 | -1 | 66 | 20.2 | – | 60 | 35 | 26 | – | –
8 | C=CCNC(=O)N(C)c1cnc2ccc(-c3ccc(OCCCN(C)C)nc3)cc2n1 | – | 11 | 49.7 | 103 | 55 | 25 | 2 | 12.2 | –
9 | Cc1cc(OCCCN2CCCCC2)ncc1-c1ccc2ncc(N(C)C(=O)NC(C)C)nc2c1 | 22 | 96 | -19.8 | – | – | – | – | – | –
10 | CCNC(=O)N(C)c1cnc2ccc(-c3ccc(OCCCN(C)C)nc3)cc2n1 | – | 33 | 57.8 | 104 | 127 | 11 | 6 | – | –
11 | CC(C)NC(=O)N(C)c1cnc2ccc(-c3ccc(OCCCN4CCOCC4)nc3)cc2n1 | – | 4 | 64.1 | – | 24 | 61 | 3 | 7.13 | > 83
12 | CN(C)CCCOc1ccc(-c2ccc3ncc(NC(=O)NC(C)(C)C)nc3c2)cn1 | -2 | – | – | 94 | 185 | 8 | – | – | –
13 | CC(C)NC(=O)N(C)c1cnc2ccc(-c3ccc(OC(C)CN(C)C)nc3)cc2n1 (stereo unspecified) | 4 | 94 | 14.7 | – | 43 | 55 | – | – | –
14 | CC(C)NC(=O)N(C)c1cnc2ccc(-c3ccc(OCCCN4CCCCC4)nc3C#N)cc2n1 | -4 | 26 | 14 | – | 5.1 | 277 | 16 | – | –
15 | CC(C)NC(=O)N(C)c1cnc2ccc(-c3cnc(OCCCN4CCCCC4)c(C(F)(F)F)c3)cc2n1 | 10 | 90 | -13.6 | – | – | – | – | – | –
16 | CC(C)NC(=O)N(C)c1cnc2ccc(-c3ccc(OCCN4CCOCC4)nc3)cc2n1 | 13 | 94 | 16.9 | – | – | – | – | – | –
17 | CN(C)CCCOc1ccc(-c2ccc3ncc(N(C)C(=O)N[C@]45C[C@@H]6C[C@H](C[C@@H](C6)C4)C5)nc3c2)cn1 | – | 37 | -3.67 | 101 | 19 | 73 | 8 | – | –
18 | CC(C)NC(=O)N(C)c1cnc2ccc(-c3ccc(OC4CCC(N(C)C)CC4)nc3)cc2n1 (stereo unspecified) | 54 | 108 | 11.3 | – | – | – | – | – | –
19 | CC(C)NC(=O)N(C)c1cnc2ccc(-c3ccc(OCCN(C)C)nc3)cc2n1 | -2 | 73 | -0.98 | – | 37 | 46 | 30 | – | –
20 | CC(C)NC(=O)N(C)c1cnc2ccc(-c3ccnc(OCCCN4CCCCC4)c3)cc2n1 | 10 | 97 | 32.2 | – | – | – | – | – | –
21 | CC(C)NC(=O)N(C)c1cnc2ccc(-c3ccc(OCC4CCN(C)C4)nc3)cc2n1 (stereo unspecified) | 1 | 72 | 32.9 | – | 40 | 50 | 31 | – | –

Row | Compound | Activity [1] [%] | Activity [2] [%] | inhibition at 0.01 µM (HCT-116 [3]) [%] | Activity [4] [%] | CLH [5] [mL/min/g] | half-life at 1 µM [6] [min] | IC50 [7] [nM] | IC50 (HCT-116 [8]) [nM] | viability at 1 µM (HCT-116 [9]) [%]
22 | CC(C)NC(=O)N(C)c1cnc2ccc(-c3ccc(OCCN4CCCCC4)nc3)cc2n1 | 4 | 86 | 24 | – | 47 | 38 | – | – | –
23 | CC(C)NC(=O)N(C)c1cnc2ccc(-c3ccc(OCCCN4CCCC4)nc3F)cc2n1 | – | – | 43.4 | – | 6.8 | 204 | 4 | 26.5 | –
24 | CC(C)NC(=O)N(C)c1cnc2ccc(-c3ccc(OCCCN4CCN(C)CC4)nc3)cc2n1 | – | 5 | 73.6 | – | 13 | 107 | 3 | 5.41 | > 83
25 | CC(C)NC(=O)N(C)c1cnc2ccc(-c3ccc(OCCC4CCCN4C)nc3)cc2n1 (stereo unspecified) | -3 | 43 | 36.5 | – | 51 | 48 | 10 | – | –
26 | C=CCNC(=O)Nc1cnc2ccc(-c3ccc(OCCCN(C)C)nc3)cc2n1 | -3 | – | – | 101 | 151 | 9 | – | – | –
27 | CN(C)CCCOc1ccc(-c2ccc3ncc(N(C)C(=O)NC(C)(C)C)nc3c2)cn1 | – | 22 | 44.7 | 98 | 100 | 14 | 13 | – | –
28 | CCCNC(=O)Nc1cnc2ccc(-c3ccc(OCCCN(C)C)nc3)cc2n1 | -4 | – | – | 99 | 120 | 12 | – | – | –
29 | Cc1nc(OCCCN2CCCCC2)ccc1-c1ccc2ncc(N(C)C(=O)NC(C)C)nc2c1 | -4 | 16 | 48.2 | – | 3 | 462 | 9 | 21.9 | –
30 | CN(C)CCCOc1ccc(-c2ccc3ncc(N(C)C(=O)Nc4cccc(C(F)(F)F)c4)nc3c2)cn1 | – | 39 | -11.9 | 109 | – | – | – | – | –
31 | CC1CCC(NC(=O)N(C)c2cnc3ccc(-c4ccc(OCCCN(C)C)nc4)cc3n2)CC1 (stereo unspecified) | – | 8 | 76.2 | 94 | 93 | 19 | 2 | – | –
32 | CC(C)CCCOc1ccc(-c2ccc3ncc(N(C)C(=O)NC(C)C)nc3c2)cn1 | 33 | – | – | – | – | – | – | – | –
33 | CC(C)NC(=O)N(C)c1cnc2ccc(-c3cnc(OCCCN4CCCCC4)c(F)c3)cc2n1 | 6 | 94 | -3.96 | – | – | – | – | – | –
34 | CN(C)CCCOc1ccc(-c2ccc3ncc(N(C)C(=O)Nc4ccc(Cl)cc4)nc3c2)cn1 | – | 37 | 11.7 | 111 | – | – | – | – | –
35 | Cc1cc(-c2ccc3ncc(N(C)C(=O)NC(C)C)nc3c2)cnc1OCCCN1CCCCC1 | 29 | 107 | -28.4 | – | – | – | – | – | –
36 | COc1ccc(NC(=O)N(C)c2cnc3ccc(-c4ccc(OCCCN(C)C)nc4)cc3n2)cc1 | – | 22 | -0.75 | 120 | 45 | 51 | 3 | – | –
37 | CC(C)NC(=O)N(C)c1cnc2ccc(-c3ccc(OCC4CCCN(C)C4)nc3)cc2n1 (stereo unspecified) | 0 | 43 | -8.09 | – | 36 | 55 | 22 | – | –
38 | COCCCOc1ccc(-c2ccc3ncc(N(C)C(=O)NC(C)C)nc3c2)cn1 | 43 | 103 | -24.2 | – | – | – | – | – | –
39 | CC(C)NC(=O)N(C)c1cnc2ccc(-c3ccc(OC4CCN(C)CC4)nc3)cc2n1 | 25 | 100 | -7.74 | – | – | – | – | – | –
40 | CN(C)CCCOc1ccc(-c2ccc3ncc(NC(=O)NC4CCCC4)nc3c2)cn1 | -5 | – | – | 98 | 144 | 10 | – | – | –
41 | CC(C)NC(=O)N(C)c1cnc2ccc(-c3cnc(OCCCN4CCCCC4)cc3F)cc2n1 | -3 | 29 | 27.4 | – | – | – | 5 | – | –
42 | CC(C)NC(=O)N(C)c1cnc2ccc(-c3ccc(OCCCN4CCCCC4)nc3F)cc2n1 | – | – | 68.7 | – | 7.4 | 187 | 1 | 15.4 | –
